These results are taken from patent publication US3937809A, “Addition compound of a nucleotide and an amino acid and the use thereof in protection against actinic radiation” (priority 1974, dated 1976).

Series [1] can be described thus: UV absorption in % at 300, 280 and 240 nm (Table 2). The class given is physicochemical. The source says:
The following Table illustrates the ultraviolet absorption characteristics at wave lengths of 300 nm, 280 nm, and 240 nm for the compounds of the invention, as well as other known compounds which have been used in the past as sun protective agents.

Series [2] can be described thus: Solubility in water at 20°C (Table 3). The class given is physicochemical.
For series [3] the following is noted: background statement; cited from earlier work.
Series [4] is described as follows: UV spectrum and extinction coefficients in water (Table I). The format is physicochemical.
A short description of another series: pH of solution (Table I). The class given is physicochemical. The conditions noted are these: c=0.005. The text has this:
The following Table 1 lists additional compounds of the invention along with their physical properties.
Molecular Brutto N(%) pH UV- Extinction coefficients

Converted amounts (≈) assume the structure as drawn.

For `Nc1ccc(C(=O)O)c(O)c1` [4-Aminosalicylic acid], in series [1], the “UV Absorption in %, 240 nm” value is recorded as 98.5%; the “UV Absorption in %, 280 nm” value stood at 99%; the “UV Absorption in %, 300 nm” value turned out to be 99%.

Turning to `Nc1cc(C(=O)O)c(O)c(S(=O)(=O)O)c1` [5-Amino-3-sulfosalicylic acid-Na2], in series [1], the “UV Absorption in %, 240 nm” value was found to be 87%; the “UV Absorption in %, 280 nm” value is reported as 0%; the “UV Absorption in %, 300 nm” value is recorded as 26%.

A word on the solubility: it is the dissolved amount per volume that the medium holds. Regarding `Nc1ncnc2nc[nH]c12` [Adenine], in series [1], the “UV Absorption in %, 240 nm” value amounted to 100%; the “UV Absorption in %, 280 nm” value came to 52%; the “UV Absorption in %, 300 nm” value was 14%. In addition, in series [2], the concentration in solution (solubility) came to 840 µg/mL (≈ 6.22 mM).

For the compound `Nc1ncnc2c1ncn2[C@@H]1O[C@H](COP(=O)(O)O)[C@@H](O)[C@H]1O` [Adenosine-5'-monophosphoric acid-Na2], in series [1], the “UV Absorption in %, 240 nm” value worked out at 80%; the “UV Absorption in %, 280 nm” value is recorded as 8%; the “UV Absorption in %, 300 nm” value came out at 6%.

With `Nc1ccccc1C(=O)O` [Anthranilic acid(o-Aminobenzoic acid), o-Aminobenzoic acid], in series [1], the “UV Absorption in %, 240 nm” value is on record as 99%; the “UV Absorption in %, 280 nm” value is listed as 48%; the “UV Absorption in %, 300 nm” value is on record as 84%.

Take `Nc1ccn([C@@H]2O[C@H](COP(=O)(O)O)[C@@H](O)[C@H]2O)c(=O)n1` [Cytidine-5'-monophosphoric acid-Na2]: in series [1], the “UV Absorption in %, 240 nm” value is listed as 86%; the “UV Absorption in %, 280 nm” value turned out to be 88%; the “UV Absorption in %, 300 nm” value was determined as 3%.

With `Nc1cc[nH]c(=O)n1` [Cytosine], in series [1], the “UV Absorption in %, 240 nm” value was found to be 100%; the “UV Absorption in %, 280 nm” value is 98%; the “UV Absorption in %, 300 nm” value amounted to 95%. For the same compound, the solubility in series [2] stood at 4000 µg/mL (≈ 36 mM).

As for `Nc1nc2nc[nH]c2c(=O)[nH]1` [Guanine], in series [1], the “UV Absorption in %, 240 nm” value is listed as 73%; the “UV Absorption in %, 280 nm” value stood at 62%; the “UV Absorption in %, 300 nm” value was 11%.

Take `O=c1[nH]cnc2nc[nH]c12` [Hypoxanthine]: in series [1], the “UV Absorption in %, 240 nm” value was determined as 100%; the “UV Absorption in %, 280 nm” value is listed as 65%; the “UV Absorption in %, 300 nm” value is reported as 6%.

On to `O=C(O)c1ccccc1O` [Salicylic acid], for which, in series [1], the “UV Absorption in %, 240 nm” value is listed as 98%; the “UV Absorption in %, 280 nm” value worked out at 74%; the “UV Absorption in %, 300 nm” value turned out to be 94%.

Turning to `O=c1cc[nH]c(=O)[nH]1` [Uracil], in series [1], the “UV Absorption in %, 240 nm” value amounted to 90%; the “UV Absorption in %, 280 nm” value was 45%; the “UV Absorption in %, 300 nm” value came out at 42%. In addition, in series [2], the concentration in solution (solubility) was 2000 µg/mL (≈ 17.8 mM).

For `O=c1ccn([C@@H]2O[C@H](COP(=O)(O)O)[C@@H](O)[C@H]2O)c(=O)[nH]1` [Uridine-5'-monophosphoric acid-Na2], in series [1], the “UV Absorption in %, 240 nm” value amounted to 70%; the “UV Absorption in %, 280 nm” value is 55%; the “UV Absorption in %, 300 nm” value turned out to be 0%.

For `Nc1ccc(C(=O)O)cc1` [p-Aminobenzoic acid], in series [1], the “UV Absorption in %, 240 nm” value is listed as 91%; the “UV Absorption in %, 280 nm” value is listed as 100%; the “UV Absorption in %, 300 nm” value worked out at 100%. Also, in series [3], the “ultraviolet absorption of known agents (in words)” value was “insufficient absorption in the ultraviolet portion of the spectrum”.

In the case of “Adenosine-5'-mono-phosphoric acid-(Na-tryptophane)2 [No. 5]”, in series [4], the “UV-spectrum λmax” value was 220 mμ. For the same compound, in series [4] (c=0.005, d-l), the “mol.Ext.coeff. ε” value was determined as 320000±4%. Further, in series [4] (c=0.005, d-l, ratio), the “Extinction coefficients E250/E260” value was 0.76, the “Extinction coefficients E280/E260” value worked out at 0.67 and the “Extinction coefficients E290/E260” value worked out at 0.33. In “pH of solution (Table I)”, the pH was 7.0.

Consider “Cytidine-5'-monophosphoric acid-(o-aminobenzoic acid)2 Na2”, for which, in series [1], the “UV Absorption in %, 240 nm” value came out at 98%; the “UV Absorption in %, 280 nm” value came to 79%; the “UV Absorption in %, 300 nm” value is listed as 55.5%.
